Test results published in publication PMC5041959, “A high-content EMT screen identifies multiple receptor tyrosine kinase inhibitors with activity on TGFβ receptor” (Oncotarget, 2016).
Read-outs that look alike come from different tables or passages of the source.

Assays:
[1] = system: Py2T cells; experiment: High-content microscopy EMT assay in TGFβ-treated Py2T breast cancer cells; assay type: cell-based, murine; conditions: Py2T
[2] = target: T1, TGFBR1 (Homo sapiens, UniProt P36897); experiment: Biochemical kinase profiling (33PanQinase radiometric assay)
T1 sequence (P36897 34-503): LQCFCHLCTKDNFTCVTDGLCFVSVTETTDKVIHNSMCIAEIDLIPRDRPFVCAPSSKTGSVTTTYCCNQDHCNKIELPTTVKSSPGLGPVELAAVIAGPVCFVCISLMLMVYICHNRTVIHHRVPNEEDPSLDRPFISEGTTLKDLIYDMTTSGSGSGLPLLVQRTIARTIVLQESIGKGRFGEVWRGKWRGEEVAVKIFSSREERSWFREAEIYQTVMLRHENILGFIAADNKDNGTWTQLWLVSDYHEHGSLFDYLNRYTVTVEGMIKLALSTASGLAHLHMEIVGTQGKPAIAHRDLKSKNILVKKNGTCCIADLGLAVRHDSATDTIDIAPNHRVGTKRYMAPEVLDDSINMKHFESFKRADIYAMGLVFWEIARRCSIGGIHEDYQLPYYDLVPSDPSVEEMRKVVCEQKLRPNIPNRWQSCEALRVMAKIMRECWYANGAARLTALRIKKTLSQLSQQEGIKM

[3] = target: TGFBR2 (Homo sapiens, UniProt P37173); experiment: as above
Chain of TGFBR2 (P37173 23-567): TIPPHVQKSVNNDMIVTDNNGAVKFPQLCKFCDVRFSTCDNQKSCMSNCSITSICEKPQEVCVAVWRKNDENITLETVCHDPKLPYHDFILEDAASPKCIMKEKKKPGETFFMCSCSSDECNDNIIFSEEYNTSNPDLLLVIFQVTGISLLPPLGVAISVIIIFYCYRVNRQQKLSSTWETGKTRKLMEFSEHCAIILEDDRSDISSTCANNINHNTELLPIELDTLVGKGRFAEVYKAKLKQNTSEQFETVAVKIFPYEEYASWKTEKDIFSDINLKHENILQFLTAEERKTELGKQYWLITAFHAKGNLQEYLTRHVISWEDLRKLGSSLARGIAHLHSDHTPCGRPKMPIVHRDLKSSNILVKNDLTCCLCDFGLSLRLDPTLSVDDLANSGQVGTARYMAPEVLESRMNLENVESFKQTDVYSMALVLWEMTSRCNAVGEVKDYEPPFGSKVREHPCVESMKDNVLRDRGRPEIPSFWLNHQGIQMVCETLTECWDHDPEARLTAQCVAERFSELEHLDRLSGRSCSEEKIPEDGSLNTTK

[4] = mice, single dose of 50 mg/kg; cited from earlier work
[5] = system: NMuMG cells; experiment: High-content microscopy EMT screen in TGFβ-treated NMuMG cells (FA, SF, FN, cell count); assay type: cell-based, murine
[6] = target: FGFR4 (Homo sapiens, UniProt P22455); experiment: Biochemical kinase profiling (33PanQinase radiometric assay); conditions: read-out: FGFR4 IC50; ATP at apparent Km
Chain of FGFR4 (P22455 22-802): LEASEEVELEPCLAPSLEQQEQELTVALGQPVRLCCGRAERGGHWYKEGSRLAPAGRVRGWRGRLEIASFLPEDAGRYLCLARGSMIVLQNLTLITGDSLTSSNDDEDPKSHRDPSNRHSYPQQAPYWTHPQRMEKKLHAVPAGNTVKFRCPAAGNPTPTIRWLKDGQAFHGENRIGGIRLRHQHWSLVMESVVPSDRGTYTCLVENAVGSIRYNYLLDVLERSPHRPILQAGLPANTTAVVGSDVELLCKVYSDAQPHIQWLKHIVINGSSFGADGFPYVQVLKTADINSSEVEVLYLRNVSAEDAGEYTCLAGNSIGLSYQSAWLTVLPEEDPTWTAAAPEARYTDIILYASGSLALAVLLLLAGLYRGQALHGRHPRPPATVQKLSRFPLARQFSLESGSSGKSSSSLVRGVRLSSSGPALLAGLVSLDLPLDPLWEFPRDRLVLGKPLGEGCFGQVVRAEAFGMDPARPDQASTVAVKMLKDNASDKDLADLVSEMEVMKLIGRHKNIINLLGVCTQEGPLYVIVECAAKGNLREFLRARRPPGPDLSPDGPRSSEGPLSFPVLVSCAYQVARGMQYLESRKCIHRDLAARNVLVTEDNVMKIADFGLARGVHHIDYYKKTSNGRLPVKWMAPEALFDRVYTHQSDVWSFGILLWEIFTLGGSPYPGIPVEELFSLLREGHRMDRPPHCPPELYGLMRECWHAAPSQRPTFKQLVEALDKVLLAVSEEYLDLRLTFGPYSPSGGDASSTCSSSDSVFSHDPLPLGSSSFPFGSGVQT

[7] = target: EGFR (Homo sapiens, UniProt P00533); experiment: as above; conditions: read-out: EGFR IC50; ATP at apparent Km
[8] = target: T2, VEGFR1 (Homo sapiens, UniProt P17948); experiment: as above; conditions: ATP at apparent Km
T2 construct: purchased ProQinase (Freiburg, Germany)

[9] = target: SRC (Homo sapiens, UniProt P12931); experiment: as above; conditions: read-out: SRC IC50; ATP at apparent Km
Chain of SRC (P12931 whole entry): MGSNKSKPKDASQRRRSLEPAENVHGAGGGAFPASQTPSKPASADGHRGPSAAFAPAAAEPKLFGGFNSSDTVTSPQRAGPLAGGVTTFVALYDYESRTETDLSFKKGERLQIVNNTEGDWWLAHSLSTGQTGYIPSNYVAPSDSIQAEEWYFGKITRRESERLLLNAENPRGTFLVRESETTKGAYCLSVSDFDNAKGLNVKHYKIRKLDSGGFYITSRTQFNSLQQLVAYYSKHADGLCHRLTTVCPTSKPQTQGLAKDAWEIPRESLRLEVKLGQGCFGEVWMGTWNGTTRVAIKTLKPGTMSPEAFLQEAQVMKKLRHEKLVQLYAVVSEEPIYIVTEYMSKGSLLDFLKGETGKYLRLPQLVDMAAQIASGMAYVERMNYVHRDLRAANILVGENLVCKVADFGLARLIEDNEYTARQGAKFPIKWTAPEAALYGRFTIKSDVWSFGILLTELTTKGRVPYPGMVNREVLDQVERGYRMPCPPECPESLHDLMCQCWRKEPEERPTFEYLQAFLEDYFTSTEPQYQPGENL

[10] = target: T3, VEGFR2 (Homo sapiens, UniProt P35968); experiment: as above; conditions: ATP at apparent Km
T3 construct: purchased ProQinase (Freiburg, Germany)
T3 sequence (P35968 20-1356): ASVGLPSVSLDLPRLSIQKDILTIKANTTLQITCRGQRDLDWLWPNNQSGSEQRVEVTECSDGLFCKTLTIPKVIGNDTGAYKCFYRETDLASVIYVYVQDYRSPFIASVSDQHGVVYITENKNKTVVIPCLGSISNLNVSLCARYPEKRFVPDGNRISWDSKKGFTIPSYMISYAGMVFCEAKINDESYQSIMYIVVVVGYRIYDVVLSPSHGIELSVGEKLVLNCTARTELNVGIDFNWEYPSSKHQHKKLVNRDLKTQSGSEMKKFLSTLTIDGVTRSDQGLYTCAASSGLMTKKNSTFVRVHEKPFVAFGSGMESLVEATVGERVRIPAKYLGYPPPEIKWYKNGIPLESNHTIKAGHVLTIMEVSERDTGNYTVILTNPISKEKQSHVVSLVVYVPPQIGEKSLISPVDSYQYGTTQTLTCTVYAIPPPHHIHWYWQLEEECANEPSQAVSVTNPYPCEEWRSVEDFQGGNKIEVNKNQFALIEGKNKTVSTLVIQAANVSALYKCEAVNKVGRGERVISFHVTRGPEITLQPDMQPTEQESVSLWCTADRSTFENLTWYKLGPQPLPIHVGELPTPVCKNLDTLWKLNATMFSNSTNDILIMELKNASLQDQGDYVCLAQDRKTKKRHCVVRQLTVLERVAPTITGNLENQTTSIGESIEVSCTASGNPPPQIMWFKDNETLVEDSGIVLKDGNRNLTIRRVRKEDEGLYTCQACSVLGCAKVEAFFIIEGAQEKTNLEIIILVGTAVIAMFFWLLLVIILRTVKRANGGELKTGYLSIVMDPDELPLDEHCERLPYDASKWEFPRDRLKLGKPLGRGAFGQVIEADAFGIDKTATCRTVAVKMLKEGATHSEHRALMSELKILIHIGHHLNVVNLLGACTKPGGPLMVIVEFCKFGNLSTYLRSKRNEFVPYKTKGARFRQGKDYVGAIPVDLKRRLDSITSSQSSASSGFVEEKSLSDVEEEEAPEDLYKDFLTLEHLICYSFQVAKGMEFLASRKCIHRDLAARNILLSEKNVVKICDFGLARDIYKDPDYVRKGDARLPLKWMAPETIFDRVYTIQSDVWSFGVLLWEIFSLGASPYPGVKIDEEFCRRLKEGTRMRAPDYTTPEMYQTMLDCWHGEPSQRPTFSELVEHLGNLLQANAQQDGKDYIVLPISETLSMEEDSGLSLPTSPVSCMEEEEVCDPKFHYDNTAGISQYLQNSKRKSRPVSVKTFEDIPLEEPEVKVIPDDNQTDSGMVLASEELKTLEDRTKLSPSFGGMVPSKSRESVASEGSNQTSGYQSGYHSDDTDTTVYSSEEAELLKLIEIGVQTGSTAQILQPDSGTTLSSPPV

[11] = target: FGFR3 (Homo sapiens, UniProt P22607); experiment: as above; conditions: read-out: FGFR3 IC50; ATP at apparent Km
[12] = target: PDGFRB (Homo sapiens, UniProt P09619); experiment: as above; conditions: read-out: PDGFRB IC50; ATP at apparent Km
[13] = target: T4, VEGFR3 (Homo sapiens, UniProt P35916); experiment: as above; conditions: ATP at apparent Km
T4 construct: purchased ProQinase (Freiburg, Germany)

[14] = target: T5, c-KIT (Homo sapiens, UniProt P10721); experiment: as above; conditions: ATP at apparent Km
T5 construct: purchased ProQinase (Freiburg, Germany)

[15] = target: FGFR1 (Homo sapiens, UniProt P11362); experiment: as above; conditions: read-out: FGFR1 IC50; ATP at apparent Km
[16] = target: PDGFRA (Homo sapiens, UniProt P16234); experiment: as above; conditions: read-out: PDGFRA IC50; ATP at apparent Km
Chain of PDGFRA (P16234 24-1089): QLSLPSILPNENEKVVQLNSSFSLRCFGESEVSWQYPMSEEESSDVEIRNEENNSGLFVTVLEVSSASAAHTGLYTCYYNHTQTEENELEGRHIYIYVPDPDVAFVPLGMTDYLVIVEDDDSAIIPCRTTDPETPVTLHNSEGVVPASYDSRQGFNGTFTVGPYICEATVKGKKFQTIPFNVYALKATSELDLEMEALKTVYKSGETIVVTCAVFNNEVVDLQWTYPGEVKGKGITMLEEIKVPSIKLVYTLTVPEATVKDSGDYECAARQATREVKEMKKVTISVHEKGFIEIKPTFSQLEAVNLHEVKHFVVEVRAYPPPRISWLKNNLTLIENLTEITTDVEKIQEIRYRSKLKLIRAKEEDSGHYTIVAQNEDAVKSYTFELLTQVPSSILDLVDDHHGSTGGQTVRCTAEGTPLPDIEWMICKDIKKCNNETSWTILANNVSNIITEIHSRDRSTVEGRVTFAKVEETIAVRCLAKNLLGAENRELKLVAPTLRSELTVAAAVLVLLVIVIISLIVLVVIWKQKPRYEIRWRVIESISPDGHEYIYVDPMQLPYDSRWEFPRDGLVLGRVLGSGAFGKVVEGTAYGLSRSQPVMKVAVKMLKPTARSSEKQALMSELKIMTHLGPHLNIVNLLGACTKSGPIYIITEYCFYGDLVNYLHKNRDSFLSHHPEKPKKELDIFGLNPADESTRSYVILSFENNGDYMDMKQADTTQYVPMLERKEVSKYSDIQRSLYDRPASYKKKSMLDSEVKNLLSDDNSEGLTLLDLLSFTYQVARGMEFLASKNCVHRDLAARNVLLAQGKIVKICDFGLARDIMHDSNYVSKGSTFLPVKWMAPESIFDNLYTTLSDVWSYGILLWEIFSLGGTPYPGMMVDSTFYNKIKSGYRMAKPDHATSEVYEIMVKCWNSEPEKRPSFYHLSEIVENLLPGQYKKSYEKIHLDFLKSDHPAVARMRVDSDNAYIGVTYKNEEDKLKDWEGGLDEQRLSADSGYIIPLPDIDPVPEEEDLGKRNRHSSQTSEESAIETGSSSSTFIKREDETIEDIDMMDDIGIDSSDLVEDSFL

[17] = target: FGFR2 (Homo sapiens, UniProt P21802); experiment: as above; conditions: read-out: FGFR2 IC50; ATP at apparent Km
Chain of FGFR2 (P21802 22-821): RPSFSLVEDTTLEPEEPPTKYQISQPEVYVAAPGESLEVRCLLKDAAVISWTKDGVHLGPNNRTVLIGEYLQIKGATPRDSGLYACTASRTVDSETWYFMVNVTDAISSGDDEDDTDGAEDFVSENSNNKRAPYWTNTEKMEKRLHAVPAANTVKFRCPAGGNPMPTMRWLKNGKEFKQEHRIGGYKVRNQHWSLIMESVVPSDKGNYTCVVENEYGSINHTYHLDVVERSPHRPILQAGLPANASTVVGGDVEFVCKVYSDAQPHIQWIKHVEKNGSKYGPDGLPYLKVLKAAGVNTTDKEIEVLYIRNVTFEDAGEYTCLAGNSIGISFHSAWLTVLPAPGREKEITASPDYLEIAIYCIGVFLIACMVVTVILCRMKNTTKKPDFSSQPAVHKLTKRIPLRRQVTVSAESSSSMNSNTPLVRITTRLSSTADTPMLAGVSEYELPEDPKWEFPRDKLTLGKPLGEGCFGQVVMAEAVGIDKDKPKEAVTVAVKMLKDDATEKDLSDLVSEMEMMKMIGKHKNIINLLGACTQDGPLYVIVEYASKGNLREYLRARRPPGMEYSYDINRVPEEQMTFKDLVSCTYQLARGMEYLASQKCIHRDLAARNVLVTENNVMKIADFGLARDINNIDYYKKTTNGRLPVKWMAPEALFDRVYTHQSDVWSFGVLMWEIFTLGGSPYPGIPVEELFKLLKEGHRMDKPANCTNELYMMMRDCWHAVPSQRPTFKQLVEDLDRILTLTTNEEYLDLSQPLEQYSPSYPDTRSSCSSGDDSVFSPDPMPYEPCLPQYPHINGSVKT

In the case of `COC(=O)c1ccc2c(c1)NC(=O)/C2=C(\Nc1ccc(N(C)C(=O)CN2CCN(C)CC2)cc1)c1ccccc1` [Nintedanib], the IC50 ([1]; Mus musculus, cell count decreased by 50% compared to DMSO control, read-out: Tox IC50) is reported as 502 nM, the “FA IC50 (focal adhesions)” value ([1]; TGFβ plus compound, 4 days) is reported as “n.m” and the “FN IC50 (fibronectin patches)” value ([1]; TGFβ plus compound, 4 days) is reported as “n.m”. The “SF IC50 (stress fibers)” value ([1]; TGFβ plus compound, 4 days) was “n.m”, the “Emax (maximal effect on cell count)” value ([1]; compared to reference 10 μM SB-431542 = 100%) was “n.m” and the IC50 [2] was 505 nM. For the same compound, the IC50 [3] was greater than 10000 nM, the Cmax [4] was roughly 1000 nM and the IC50 ([5]; Mus musculus, 96 h, NMuMG, TGFβ1 2 ng/ml plus compound, 4 days, parameter decreased by 50%, read-out: FA IC50 (focal adhesion formation)) was 2630 nM. It also gave an IC50 ([5]; Mus musculus, 96 h, NMuMG, TGFβ1 2 ng/ml plus compound, 4 days, parameter decreased by 50%, read-out: FN IC50 (fibronectin patch formation)) of 1180 nM, an IC50 ([5]; Mus musculus, 96 h, NMuMG, TGFβ1 2 ng/ml plus compound, 4 days, parameter decreased by 50%, read-out: SF IC50 (stress fibers)) of 5060 nM and an IC50 ([5]; Mus musculus, NMuMG, cell count decreased by 50% compared to DMSO control, read-out: Tox IC50) of 23000 nM. The IC50 ([5]; Mus musculus, NMuMG, mean of IC50 values obtained for FA, SF, FN, read-out: EMT (FA/SF/FN) combined IC50) was 2960 nM, the IC50 ([5]; Mus musculus, read-out: CCI IC50 (cell count increase)) was 1110 nM and the Emax ([5]; Mus musculus, read-out: Emax (maximal effect on cell count)) was 26.2%.

For `Cc1cccc(-c2[nH]c(C(C)(C)C)nc2-c2ccc3nccnc3c2)n1` [SB-525334], the IC50 [6] was greater than 10000 nM, the IC50 [7] was greater than 10000 nM and the IC50 [8] was less than 0.3 nM. For the same compound, the IC50 [9] was 5620 nM, the IC50 [10] was 3520 nM and the IC50 [11] was greater than 10000 nM. For the same compound, the IC50 [12] was greater than 10000 nM, the IC50 ([3]; read-out: TGFBR2 IC50, ATP at apparent Km) was greater than 10000 nM and the IC50 [13] was greater than 10000 nM. It also gave an IC50 [14] greater than 10000 nM, an IC50 [15] greater than 10000 nM and an IC50 [16] greater than 10000 nM. The IC50 [17] was greater than 10000 nM, the IC50 ([5]; NMuMG, TGFβ1 2 ng/ml plus compound, 4 days, parameter decreased by 50%, read-out: FA IC50 (focal adhesion formation)) was 276 nM and the IC50 ([5]; NMuMG, TGFβ1 2 ng/ml plus compound, 4 days, parameter decreased by 50%, read-out: FN IC50 (fibronectin patch formation)) was 261 nM. For the same compound, the IC50 ([5]; NMuMG, TGFβ1 2 ng/ml plus compound, 4 days, parameter decreased by 50%, read-out: SF IC50 (stress fibers)) was 243 nM, the IC50 ([5]; NMuMG, cell count decreased by 50% compared to DMSO control, read-out: Tox IC50) was greater than 3000 nM and the IC50 ([5]; NMuMG, cell count increased by 50% compared to 100% with 10 μM SB-431542, read-out: CCI IC50 (cell count increase)) was 380 nM. The “Emax (maximal effect on cell count)” value ([5]; NMuMG, compared to reference 10 μM SB-431542 = 100%) was 100% and the IC50 ([5]; NMuMG, mean of IC50 values obtained for FA, SF, FN, read-out: EMT (FA/SF/FN) combined IC50) was 260 nM.
